{"source": "patent US11807644B2", "about": "(PMV Pharmaceuticals, Inc., priority 2020, dated 2023)"}
{"biological_target": "T1, recombinant His-tag Y220C p53 DBD protein (Homo sapiens, UniProt P04637, Y220C)", "T1 construct": "recombinant His-tag Y220C p53 DBD protein (amino acids #˜94-312)", "experiment": "In vitro DNA binding activity assay (TR-FRET): binding of His-tag Y220C p53 DBD to biotin-labeled consensus DNA", "format": "biochemical", "conditions": "SC150 = concentration to increase DNA binding by […], His-tag Y220C p53 DBD, biotin-labeled consensus DNA", "description": "(§1) DNA binding activity of the compounds was measured using a TR-FRET (Time-Resolved Fluorescence Resonance Energy Transfer) assay in which recombinant His-tag Y220C p53 DBD protein binds to biotin-labeled consensus DNA. Binding of recombinant His-tag Y220C p53 DBD protein and biotin-labeled consensus DNA was registered by the FRET (fluorescence resonance energy transfer) between allophycocyanin (APC) conjugated anti-His tag antibody and Europium-(Eu) conjugated Streptavidin.\n(§2) The compounds of TABLES 1-9 (2 mM stock in dimethylsulfoxide) were diluted 3-fold in series in dimethylsulfoxide. 1.2 μL of a compound solution was added to each well of 384-well polypropylene black plates (NUNC). Thirty μL per well of 181 nM recombinant His-tag Y220C p53 DBD protein (amino acids #˜94-312; SEQ ID NO: 1) and 6.1 nM of APC conjugated anti-His tag antibody (Columbia Biosciences) in ice-cold Assay Buffer 1 (50 mM Tris-HCl, pH 7.4, 75 mM KCl, 0.75 mM DTT and 0.2 mg/ml, BSA) were added. As a background control. 30 μL of Assay Buffer 1 containing 6.1 nM of APC anti-His antibody (No Y220C protein) was also added into a second set of serially diluted compound plates. The samples were spun by centrifuge at 1,200 rpm (Eppendorf 5810R Plate centrifuge) for 1 minute and incubated at room temperature (20° C.) for 15 min. The samples were then further incubated at either 27° C. or 29° C. for 60 min. […] The samples were spun by centrifuge at 1,200 rpm for 1 min and incubated at room temperature (20° C.) for 20 min. Assay signals were monitored by reading excitation at 340 nm, and emission fluorescence at 615 nm and 665 nm on an Envision® reader. Normalized TR-FRET (time-resolved fluorescence resonance energy transfer) assay signal (Rn) was calculated by the formula: Rn=[(A−Ba−C×(D−Bd))/(D−Bd)]×(D−Bd) Wherein: • A is the fluorescence intensity of the sample at 665 nm; • D is the fluorescence intensity of the sample at 615 nm; • Ba and Bd are plate backgrounds at 665 nm and 615 nm, respectively; and • Dc is the fluorescence intensity of 0.67 nM Eu-SA in the assay buffer at 615 nm.\n(§3) The cross-talk factor (C) was determined by the following formula: C=(Ac−Ba)/(Dc−Bd) wherein Ac is the fluorescence intensity of 0.67 nM Europium (Eu) conjugated Streptavidin in the assay buffer at 665 nm."}
{"smiles": "C[C@H]1C[C@H]1C(=O)NCc1nc(-c2cc3c(NC4CCN(C)CC4)cccc3n2CC(F)(F)F)no1", "note": "(racemic) [Compound 158B, (+/−)-(1R,2S)-2-methyl-N-[(3-{4-[(1-methylpiperidin-4-yl)amino]-1-(2,2,2-trifluoroethyl)-1H-indol-2-yl}-1,2,4-oxadiazol-5-yl)methyl]cyclopropane-1-carboxamide]", "Y220C SC150 (μM)": "* (* = 0 μM ≤ SC150 < 0.1 μM)"}
{"smiles": "Cn1ccc(C(=O)NCc2nc(-c3cc4c(N[C@@H]5CCN(C(C)(C)C)C[C@H]5F)cccc4n3CC(F)(F)F)no2)c1", "note": "(racemic) [Compound 399B, N-{[3-(4-{[(3R,4R)-1-tert-butyl-3-fluoropiperidin-4-yl]amino}-1-(2,2,2-trifluoroethyl)-1H-indol-2-yl)-1,2,4-oxadiazol-5-yl]methyl}-1-methyl-1H-pyrrole-3-carboxamide]", "Y220C SC150 (μM)": "* (* = 0 μM ≤ SC150 < 0.1 μM)"}
{"smiles": "CN1CC[C@@H](Nc2cccc3c2cc(-c2noc(CNc4ccc(S(C)(=O)=O)cc4)n2)n3CC(F)(F)F)[C@@H](F)C1", "note": "(racemic) [Compound 177B, (+/−)-N-[(3R,4S)-3-fluoro-1-methylpiperidin-4-yl]-2-(5-{[(4-methanesulfonylphenyl)amino]methyl}-1,2,4-oxadiazol-3-yl)-1-(2,2,2-trifluoroethyl)-1H-indol-4-amine]", "Y220C SC150 (μM)": "* (* = 0 μM ≤ SC150 < 0.1 μM)"}
{"smiles": "CCOC1CCCC1n1ccc(C(=O)NCc2nc(-c3cc4c(N[C@@H]5CCN(C)C[C@@H]5F)cccc4n3CC(F)(F)F)no2)c1", "note": "(stereo in doubt) [Compound 376B, 1-[(1R,2R)-2-ethoxycyclopentyl]-N-{[3-(4-{[(3S,4R)-3-fluoro-1-methylpiperidin-4-yl]amino}-1-(2,2,2-trifluoroethyl)-1H-indol-2-yl)-1,2,4-oxadiazol-5-yl]methyl}-1H-pyrrole-3-carboxamide]", "Y220C SC150 (μM)": "* (* = 0 μM ≤ SC150 < 0.1 μM)"}
{"smiles": "CN1CCC(n2ccc(C(=O)NCc3nc(-c4cc5c(N[C@@H]6CCN(C)C[C@@H]6F)cccc5n4CC(F)(F)F)no3)c2)C1", "note": "(stereo partly shown) [Compound 351B]", "Y220C SC150 (μM)": "* (* = 0 μM ≤ SC150 < 0.1 μM)"}
{"smiles": "CN1CC[C@@H](Nc2cccc3c2cc(-c2cc(CNC(=O)c4csc(C(C)(C)O)c4)on2)n3CC(F)(F)F)[C@@H](F)C1", "note": "[Compound 555B, N-{[3-(4-{[(3S,4R)-3-fluoro-1-methylpiperidin-4-yl]amino}-1-(2,2,2-trifluoroethyl)-1H-indol-2-yl)-1,2-oxazol-5-yl]methyl}-5-(2-hydroxypropan-2-yl)thiophene-3-carboxamide]", "Y220C SC150 (μM)": "* (* = 0 μM ≤ SC150 < 0.1 μM)"}
{"smiles": "CN1CC[C@@H](Nc2cccc3c2cc(-c2noc(CNC(=O)c4cnn(C5CC5)c4)n2)n3CC(F)(F)F)[C@@H](F)C1", "note": "[Compound 296B, 1-cyclopropyl-N-{[3-(4-{[(3S,4R)-3-fluoro-1-methylpiperidin-4-yl]amino}-1-(2,2,2-trifluoroethyl)-1H-indol-2-yl)-1,2,4-oxadiazol-5-yl]methyl}-1H-pyrazole-4-carboxamide]", "Y220C SC150 (μM)": "* (* = 0 μM ≤ SC150 < 0.1 μM)"}
{"smiles": "CN1CCC(Nc2cccc3c2cc(-c2noc(CNC(=O)c4ccc(F)cc4)n2)n3CC(F)(F)F)CC1", "note": "[Compound 150B, 4-fluoro-N-[(3-{4-[(1-methylpiperidin-4-yl)amino]-1-(2,2,2-trifluoroethyl)-1H-indol-2-yl}-1,2,4-oxadiazol-5-yl)methyl]benzamide]", "Y220C SC150 (μM)": "* (* = 0 μM ≤ SC150 < 0.1 μM)"}
{"smiles": "CCN1CC[C@H](Nc2cccc3c2cc(-c2noc(CNC(=O)c4ccn(CCOC)c4)n2)n3CC(F)(F)F)[C@H](F)C1", "note": "[Compound 273B, N-{[3-(4-{[(3R,4S)-1-ethyl-3-fluoropiperidin-4-yl]amino}-1-(2,2,2-trifluoroethyl)-1H-indol-2-yl)-1,2,4-oxadiazol-5-yl]methyl}-1-(2-methoxyethyl)-1H-pyrrole-3-carboxamide]", "Y220C SC150 (μM)": "* (* = 0 μM ≤ SC150 < 0.1 μM)"}
{"smiles": "CN1CC[C@@H](Nc2cccc3c2cc(-c2ncc(CNc4ccccc4)s2)n3CC(F)(F)F)[C@@H](F)C1", "note": "(racemic) [Compound 98B, (+/−)-N-[(3R,4S)-3-fluoro-1-methylpiperidin-4-yl]-2-{5-[(phenylamino)methyl]-1,3-thiazol-2-yl}-1-(2,2,2-trifluoroethyl)-1H-indol-4-amine]", "Y220C SC150 (μM)": "* (* = 0 μM ≤ SC150 < 0.1 μM)"}
{"smiles": "COC(C)(C)c1cc(C(=O)NCc2nc(-c3cc4c(N[C@H]5CCNC[C@H]5F)cccc4n3CC(F)(F)F)no2)cs1", "note": "[Compound 490B, N-{[3-(4-{[(3R,4S)-3-fluoropiperidin-4-yl]amino}-1-(2,2,2-trifluoroethyl)-1H-indol-2-yl)-1,2,4-oxadiazol-5-yl]methyl}-5-(2-methoxypropan-2-yl)thiophene-3-carboxamide]", "Y220C SC150 (μM)": "* (* = 0 μM ≤ SC150 < 0.1 μM)"}
{"smiles": "CN1CCC(Nc2cccc3c2cc(-c2noc(CNC(=O)c4ccc(C#N)cc4)n2)n3CC(F)(F)F)CC1", "note": "[Compound 151B, 4-cyano-N-[(3-{4-[(1-methylpiperidin-4-yl)amino]-1-(2,2,2-trifluoroethyl)-1H-indol-2-yl}-1,2,4-oxadiazol-5-yl)methyl]benzamide]", "Y220C SC150 (μM)": "* (* = 0 μM ≤ SC150 < 0.1 μM)"}
{"smiles": "CC(C)N1CC[C@@H](Nc2cccc3c2cc(-c2noc(CNC(=O)c4cnn(C(C)(C)C)c4)n2)n3CC(F)(F)F)[C@@H](F)C1", "note": "[Compound 316B, 1-tert-butyl-N-{[3-(4-{[(3S,4R)-3-fluoro-1-(propan-2-yl)piperidin-4-yl]amino}-1-(2,2,2-trifluoroethyl)-1H-indol-2-yl)-1,2,4-oxadiazol-5-yl]methyl}-1H-pyrazole-4-carboxamide]", "Y220C SC150 (μM)": "* (* = 0 μM ≤ SC150 < 0.1 μM)"}
{"smiles": "COCC(C)(C)n1cc(C(=O)NCc2nc(-c3cc4c(N[C@@H]5CCN(C)C[C@@H]5F)cccc4n3CC(F)(F)F)no2)cn1", "note": "[Compound 391B, N-{[3-(4-{[(3S,4R)-3-fluoro-1-methylpiperidin-4-yl]amino}-1-(2,2,2-trifluoroethyl)-1H-indol-2-yl)-1,2,4-oxadiazol-5-yl]methyl}-1-(1-methoxy-2-methylpropan-2-yl)-1H-pyrazole-4-carboxamide]", "Y220C SC150 (μM)": "* (* = 0 μM ≤ SC150 < 0.1 μM)"}
{"smiles": "COCC(C)n1ccc(C(=O)NCc2nc(-c3cc4c(N[C@@H]5CCN(C(C)(C)C)C[C@@H]5F)cccc4n3CC(F)(F)F)no2)c1", "note": "(mixture of isomers) [Compound 357B, rac-N-{[3-(4-{[(3R,4S)-1-tert-butyl-3-fluoropiperidin-4-yl]amino}-1-(2,2,2-trifluoroethyl)-1H-indol-2-yl)-1,2,4-oxadiazol-5-yl]methyl}-1-(1-methoxypropan-2-yl)-1H-pyrrole-3-carboxamide]", "Y220C SC150 (μM)": "* (* = 0 μM ≤ SC150 < 0.1 μM)"}
{"smiles": "CO[C@H]1C[C@H](n2ccc(C(=O)NCc3nc(-c4cc5c(N[C@@H]6CCN(C)C[C@@H]6F)cccc5n4CC(F)(F)F)no3)c2)C1", "note": "[Compound 449B, N-{[3-(4-{[(3S,4R)-3-fluoro-1-methylpiperidin-4-yl]amino}-1-(2,2,2-trifluoroethyl)-1H-indol-2-yl)-1,2,4-oxadiazol-5-yl]methyl}-1-[(1r,3r)-3-methoxycyclobutyl]-1H-pyrrole-3-carboxamide]", "Y220C SC150 (μM)": "* (* = 0 μM ≤ SC150 < 0.1 μM)"}
{"smiles": "COC1CCCC1n1cc(C(=O)NCc2nc(-c3cc4c(N[C@@H]5CCN(C)C[C@@H]5F)cccc4n3CC(F)(F)F)no2)cn1", "note": "(stereo in doubt) [Compound 348B, N-{[3-(4-{[(3S,4R)-3-fluoro-1-methylpiperidin-4-yl]amino}-1-(2,2,2-trifluoroethyl)-1H-indol-2-yl)-1,2,4-oxadiazol-5-yl]methyl}-1-[(1R,2R)-2-methoxycyclopentyl]-1H-pyrazole-4-carboxamide]", "Y220C SC150 (μM)": "* (* = 0 μM ≤ SC150 < 0.1 μM)"}
{"biological_target": "T1, recombinant His-tag Y220C p53 DBD protein", "experiment": "In vitro DNA binding activity assay (TR-FRET): binding of His-tag Y220C p53 DBD to biotin-labeled consensus DNA", "format": "biochemical", "conditions": "concentration to increase DNA binding by […], incubated at either 27° C. or 29° C. for 60 min", "description": "as §1, §2, §3"}
{"smiles": "CC(C)(C#N)c1ccc(NCc2ccc(-c3cc4c(NC5CCS(=O)(=O)CC5)cccc4n3CC(F)(F)F)cc2)cn1", "note": "[Compound 7A, 2-(5-{[(4-{4-[(1,1-dioxo-1λ^6-thian-4-yl)amino]-1-(2,2,2-trifluoroethyl)-1H-indol-2-yl}phenyl)methyl]amino}pyridine-2-yl)-2-methylpropanenitrile]", "SC150 (μM)": "++ (++ = 2 μM ≤ SC150 < 5 μM)"}
{"smiles": "COCC(O)CN1CCC(Nc2cccc3c2cc(-c2ccc4c(c2)NC(=O)C4)n3CC(F)(F)F)CC1", "note": "(stereo not shown) [Compound 49A, 4-{[1-(2-hydroxy-3-methoxypropyl)piperidin-4-yl]amino}-1-(2,2,2-trifluoroethyl)-2′,3′-dihydro-1H,1′H-[2,6′-biindol]-2′-one]", "SC150 (μM)": "++ (++ = 2 μM ≤ SC150 < 5 μM)"}
